Measurements from ChEMBL document CHEMBL1152560, “Substituted 2-arylbenzothiazoles as kinase inhibitors: hit-to-lead optimization” (Bioorg Med Chem, 2009).

Key:
[1] = target: Dual specificity tyrosine-phosphorylation-regulated kinase 1B (Homo sapiens) (UniProt Q9Y463); assay: Residual activity of DYRK1B at 0.1 uM by microplate scintillation counting
[2] = target: Epidermal growth factor receptor (Homo sapiens, UniProt P00533); assay: Residual activity of wild type EGF-R at 0.1 uM by microplate scintillation counting
[3] = target: Serine/threonine-protein kinase N1 (Homo sapiens) (UniProt Q16512); assay: Residual activity of PRK1 at 10 uM by microplate scintillation counting
Sequence of Serine/threonine-protein kinase N1 (Homo sapiens) (Q16512 2-942 limits assumed): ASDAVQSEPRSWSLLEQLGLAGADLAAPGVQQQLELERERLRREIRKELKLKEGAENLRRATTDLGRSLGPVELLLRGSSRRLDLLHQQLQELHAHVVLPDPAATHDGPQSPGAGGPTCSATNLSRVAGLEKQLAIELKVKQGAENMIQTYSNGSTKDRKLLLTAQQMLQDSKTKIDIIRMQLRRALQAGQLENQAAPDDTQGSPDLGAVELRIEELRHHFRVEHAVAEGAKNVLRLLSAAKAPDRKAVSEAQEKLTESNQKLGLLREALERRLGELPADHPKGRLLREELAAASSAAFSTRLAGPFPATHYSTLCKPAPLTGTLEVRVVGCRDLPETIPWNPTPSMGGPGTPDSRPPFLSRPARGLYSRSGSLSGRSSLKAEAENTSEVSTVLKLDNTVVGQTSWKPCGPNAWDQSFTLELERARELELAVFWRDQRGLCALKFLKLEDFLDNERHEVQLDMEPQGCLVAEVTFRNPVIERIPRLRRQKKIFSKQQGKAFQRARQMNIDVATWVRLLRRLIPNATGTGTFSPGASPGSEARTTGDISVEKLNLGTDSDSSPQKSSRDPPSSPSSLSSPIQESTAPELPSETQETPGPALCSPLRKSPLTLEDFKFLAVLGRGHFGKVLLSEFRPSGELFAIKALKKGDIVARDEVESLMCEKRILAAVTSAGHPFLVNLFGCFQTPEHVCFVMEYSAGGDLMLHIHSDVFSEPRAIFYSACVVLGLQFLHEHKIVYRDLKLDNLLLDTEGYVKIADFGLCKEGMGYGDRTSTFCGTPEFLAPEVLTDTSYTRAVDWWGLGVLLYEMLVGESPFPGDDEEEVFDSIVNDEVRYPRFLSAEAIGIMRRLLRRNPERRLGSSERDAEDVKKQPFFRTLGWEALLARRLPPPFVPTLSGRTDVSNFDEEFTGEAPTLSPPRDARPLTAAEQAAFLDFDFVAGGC

[4] = target: Vascular endothelial growth factor receptor 2 (Homo sapiens, UniProt P35968); assay: Residual activity of VEGFR2 at 1 uM by microplate scintillation counting
Sequence of Vascular endothelial growth factor receptor 2 (P35968 whole entry): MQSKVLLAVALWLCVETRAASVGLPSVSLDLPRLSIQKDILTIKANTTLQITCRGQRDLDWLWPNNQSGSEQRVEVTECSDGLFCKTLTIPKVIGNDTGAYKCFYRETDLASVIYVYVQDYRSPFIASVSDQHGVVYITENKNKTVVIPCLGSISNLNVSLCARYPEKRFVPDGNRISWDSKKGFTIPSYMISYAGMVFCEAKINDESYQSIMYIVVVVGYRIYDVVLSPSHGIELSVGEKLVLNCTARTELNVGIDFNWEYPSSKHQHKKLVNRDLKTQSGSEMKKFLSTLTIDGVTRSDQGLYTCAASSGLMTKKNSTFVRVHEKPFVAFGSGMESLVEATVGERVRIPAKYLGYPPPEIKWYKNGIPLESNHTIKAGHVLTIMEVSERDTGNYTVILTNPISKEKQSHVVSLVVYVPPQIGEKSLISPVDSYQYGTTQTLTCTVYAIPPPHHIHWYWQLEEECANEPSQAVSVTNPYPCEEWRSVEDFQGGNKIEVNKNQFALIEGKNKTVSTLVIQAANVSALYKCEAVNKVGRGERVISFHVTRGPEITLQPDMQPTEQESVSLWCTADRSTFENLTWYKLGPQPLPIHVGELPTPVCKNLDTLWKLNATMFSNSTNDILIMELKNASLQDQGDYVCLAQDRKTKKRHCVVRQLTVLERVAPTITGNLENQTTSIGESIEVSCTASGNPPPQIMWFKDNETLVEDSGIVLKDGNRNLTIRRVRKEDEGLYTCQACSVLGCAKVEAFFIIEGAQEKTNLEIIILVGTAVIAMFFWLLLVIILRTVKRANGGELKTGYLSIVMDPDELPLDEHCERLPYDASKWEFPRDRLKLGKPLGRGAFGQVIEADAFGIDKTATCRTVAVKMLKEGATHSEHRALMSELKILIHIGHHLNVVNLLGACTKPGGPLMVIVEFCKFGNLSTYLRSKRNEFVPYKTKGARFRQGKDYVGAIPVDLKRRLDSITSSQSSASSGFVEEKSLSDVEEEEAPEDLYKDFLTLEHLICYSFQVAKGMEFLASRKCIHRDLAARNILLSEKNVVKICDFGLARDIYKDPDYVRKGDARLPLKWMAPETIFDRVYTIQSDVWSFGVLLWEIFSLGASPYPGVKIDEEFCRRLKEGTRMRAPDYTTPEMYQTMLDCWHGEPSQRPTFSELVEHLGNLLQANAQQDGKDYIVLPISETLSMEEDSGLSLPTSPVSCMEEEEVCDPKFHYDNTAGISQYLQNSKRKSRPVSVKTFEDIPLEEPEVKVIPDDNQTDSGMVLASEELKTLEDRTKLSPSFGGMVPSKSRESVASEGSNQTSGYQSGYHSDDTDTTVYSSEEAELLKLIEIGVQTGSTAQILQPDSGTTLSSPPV

[5] = target: High affinity nerve growth factor receptor (Homo sapiens) (UniProt P04629); assay: Residual activity of TRK-A at 0.1 uM by microplate scintillation counting
Sequence of High affinity nerve growth factor receptor (Homo sapiens) (P04629 33-796 limits assumed): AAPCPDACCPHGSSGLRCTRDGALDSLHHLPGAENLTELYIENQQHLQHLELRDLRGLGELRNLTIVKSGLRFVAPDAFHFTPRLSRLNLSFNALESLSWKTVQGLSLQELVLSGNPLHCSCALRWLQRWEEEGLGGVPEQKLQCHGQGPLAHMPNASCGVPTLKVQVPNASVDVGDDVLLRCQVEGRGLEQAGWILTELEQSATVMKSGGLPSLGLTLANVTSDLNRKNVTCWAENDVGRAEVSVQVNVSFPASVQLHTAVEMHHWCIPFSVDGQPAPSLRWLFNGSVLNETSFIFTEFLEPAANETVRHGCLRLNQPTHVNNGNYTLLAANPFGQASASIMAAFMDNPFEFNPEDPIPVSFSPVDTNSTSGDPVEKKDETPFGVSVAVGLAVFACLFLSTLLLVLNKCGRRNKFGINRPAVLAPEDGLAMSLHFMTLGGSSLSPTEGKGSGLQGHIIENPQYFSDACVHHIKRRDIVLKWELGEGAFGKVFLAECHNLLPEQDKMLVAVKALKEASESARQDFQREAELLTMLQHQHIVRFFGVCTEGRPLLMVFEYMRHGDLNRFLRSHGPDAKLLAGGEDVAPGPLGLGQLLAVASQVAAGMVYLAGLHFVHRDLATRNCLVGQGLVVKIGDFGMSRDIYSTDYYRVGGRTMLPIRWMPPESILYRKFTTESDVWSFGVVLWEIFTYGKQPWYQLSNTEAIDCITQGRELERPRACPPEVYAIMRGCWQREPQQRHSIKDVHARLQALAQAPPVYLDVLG

[6] = target: Ephrin type-A receptor 7 (Homo sapiens) (UniProt Q15375); assay: Residual activity of EPHA7 at 0.1 uM by microplate scintillation counting
[7] = target: T1, Inhibitor of nuclear factor kappa-B kinase subunit beta (Homo sapiens) (UniProt O14920); assay: Residual activity of IKK-beta at 10 uM by microplate scintillation counting
T1 sequence (whole entry): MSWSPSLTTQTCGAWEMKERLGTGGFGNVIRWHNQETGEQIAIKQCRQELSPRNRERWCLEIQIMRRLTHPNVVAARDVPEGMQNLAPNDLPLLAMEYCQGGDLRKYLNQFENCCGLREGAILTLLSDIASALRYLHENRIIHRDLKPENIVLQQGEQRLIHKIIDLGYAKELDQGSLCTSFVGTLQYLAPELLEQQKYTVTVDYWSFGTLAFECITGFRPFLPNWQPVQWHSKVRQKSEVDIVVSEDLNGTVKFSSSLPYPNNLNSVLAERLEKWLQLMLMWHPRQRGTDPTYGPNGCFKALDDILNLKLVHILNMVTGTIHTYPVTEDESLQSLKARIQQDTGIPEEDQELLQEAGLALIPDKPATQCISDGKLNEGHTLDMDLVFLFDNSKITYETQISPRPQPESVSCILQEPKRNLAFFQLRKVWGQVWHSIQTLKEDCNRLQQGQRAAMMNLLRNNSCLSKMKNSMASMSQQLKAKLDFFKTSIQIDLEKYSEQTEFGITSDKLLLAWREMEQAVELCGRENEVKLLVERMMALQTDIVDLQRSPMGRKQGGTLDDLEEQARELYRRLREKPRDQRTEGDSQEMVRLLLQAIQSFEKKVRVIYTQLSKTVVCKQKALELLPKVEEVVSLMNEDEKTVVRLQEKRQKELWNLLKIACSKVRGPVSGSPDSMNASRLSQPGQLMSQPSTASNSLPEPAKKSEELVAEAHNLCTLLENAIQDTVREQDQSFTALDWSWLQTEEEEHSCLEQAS

[8] = test system: Mast/stem cell growth factor receptor Kit (Homo sapiens), P10721 [T670I]; assay: Residual activity of KIT T670I mutant at 10 uM by microplate scintillation counting
[9] = target: T2, Serine/threonine-protein kinase PLK4 (Homo sapiens) (UniProt O00444); assay: Residual activity of SAK at 10 uM by microplate scintillation counting
T2 sequence (whole entry): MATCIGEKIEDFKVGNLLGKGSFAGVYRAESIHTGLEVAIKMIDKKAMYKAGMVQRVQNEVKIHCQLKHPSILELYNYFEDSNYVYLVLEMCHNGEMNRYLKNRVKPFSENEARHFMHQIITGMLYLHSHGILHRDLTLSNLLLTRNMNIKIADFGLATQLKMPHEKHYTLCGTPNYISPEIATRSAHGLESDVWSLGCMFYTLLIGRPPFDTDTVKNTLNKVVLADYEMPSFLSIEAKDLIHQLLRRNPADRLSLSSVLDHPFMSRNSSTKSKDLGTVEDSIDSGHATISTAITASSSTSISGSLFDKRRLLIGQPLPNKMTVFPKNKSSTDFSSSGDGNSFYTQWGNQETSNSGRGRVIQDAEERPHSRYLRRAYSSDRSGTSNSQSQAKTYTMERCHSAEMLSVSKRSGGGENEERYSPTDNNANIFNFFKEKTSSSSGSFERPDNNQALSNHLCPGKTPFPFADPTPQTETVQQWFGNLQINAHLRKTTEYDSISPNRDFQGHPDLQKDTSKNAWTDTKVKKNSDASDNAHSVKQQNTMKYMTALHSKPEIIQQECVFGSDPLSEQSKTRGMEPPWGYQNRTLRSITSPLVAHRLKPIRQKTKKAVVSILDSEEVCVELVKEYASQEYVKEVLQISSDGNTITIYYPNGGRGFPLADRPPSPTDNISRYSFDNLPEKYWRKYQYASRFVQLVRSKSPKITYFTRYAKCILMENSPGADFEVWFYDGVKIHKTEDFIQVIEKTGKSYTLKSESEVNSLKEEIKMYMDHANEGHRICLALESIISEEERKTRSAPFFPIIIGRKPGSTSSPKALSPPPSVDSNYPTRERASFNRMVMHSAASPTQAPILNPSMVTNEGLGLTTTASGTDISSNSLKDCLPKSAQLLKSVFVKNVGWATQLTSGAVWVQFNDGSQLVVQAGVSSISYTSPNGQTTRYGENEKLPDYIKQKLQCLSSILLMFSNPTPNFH

[10] = target: Non-receptor tyrosine-protein kinase TYK2 (Homo sapiens) (UniProt P29597); assay: Residual activity of TYK2 at 0.1 uM by microplate scintillation counting
Sequence of Non-receptor tyrosine-protein kinase TYK2 (Homo sapiens) (P29597 whole entry): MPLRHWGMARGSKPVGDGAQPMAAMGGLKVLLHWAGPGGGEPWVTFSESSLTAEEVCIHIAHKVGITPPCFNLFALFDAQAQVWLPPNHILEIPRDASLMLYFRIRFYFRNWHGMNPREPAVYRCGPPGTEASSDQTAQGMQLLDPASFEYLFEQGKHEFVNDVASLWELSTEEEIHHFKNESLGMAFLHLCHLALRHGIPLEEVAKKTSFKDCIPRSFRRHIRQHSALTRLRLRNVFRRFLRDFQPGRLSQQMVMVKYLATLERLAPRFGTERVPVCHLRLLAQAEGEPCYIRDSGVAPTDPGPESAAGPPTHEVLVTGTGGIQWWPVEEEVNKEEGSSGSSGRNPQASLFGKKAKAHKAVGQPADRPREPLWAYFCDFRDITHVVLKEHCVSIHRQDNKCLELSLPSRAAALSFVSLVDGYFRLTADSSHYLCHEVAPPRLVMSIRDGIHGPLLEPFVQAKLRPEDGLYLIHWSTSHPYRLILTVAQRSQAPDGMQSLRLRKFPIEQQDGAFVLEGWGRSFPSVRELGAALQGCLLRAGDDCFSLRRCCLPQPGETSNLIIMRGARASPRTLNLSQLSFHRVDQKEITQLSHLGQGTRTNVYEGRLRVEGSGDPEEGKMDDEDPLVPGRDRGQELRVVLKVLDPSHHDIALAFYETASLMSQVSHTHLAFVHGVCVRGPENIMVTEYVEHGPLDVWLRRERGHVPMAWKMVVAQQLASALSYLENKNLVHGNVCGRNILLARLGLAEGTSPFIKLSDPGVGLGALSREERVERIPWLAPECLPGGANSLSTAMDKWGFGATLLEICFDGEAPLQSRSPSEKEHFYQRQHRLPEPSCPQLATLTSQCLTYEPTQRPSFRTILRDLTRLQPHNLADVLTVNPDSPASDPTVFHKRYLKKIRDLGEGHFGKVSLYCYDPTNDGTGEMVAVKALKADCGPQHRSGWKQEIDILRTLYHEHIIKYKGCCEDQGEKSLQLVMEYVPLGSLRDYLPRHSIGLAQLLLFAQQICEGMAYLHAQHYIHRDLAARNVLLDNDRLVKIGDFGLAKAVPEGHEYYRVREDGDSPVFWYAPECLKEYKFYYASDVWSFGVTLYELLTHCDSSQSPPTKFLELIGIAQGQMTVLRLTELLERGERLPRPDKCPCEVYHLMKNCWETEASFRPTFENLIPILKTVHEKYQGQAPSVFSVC

[11] = target: T3, cGMP-dependent protein kinase 1 (Homo sapiens) (UniProt Q13976); assay: Residual activity of PRKG1 at 0.1 uM by microplate scintillation counting
T3 sequence (whole entry): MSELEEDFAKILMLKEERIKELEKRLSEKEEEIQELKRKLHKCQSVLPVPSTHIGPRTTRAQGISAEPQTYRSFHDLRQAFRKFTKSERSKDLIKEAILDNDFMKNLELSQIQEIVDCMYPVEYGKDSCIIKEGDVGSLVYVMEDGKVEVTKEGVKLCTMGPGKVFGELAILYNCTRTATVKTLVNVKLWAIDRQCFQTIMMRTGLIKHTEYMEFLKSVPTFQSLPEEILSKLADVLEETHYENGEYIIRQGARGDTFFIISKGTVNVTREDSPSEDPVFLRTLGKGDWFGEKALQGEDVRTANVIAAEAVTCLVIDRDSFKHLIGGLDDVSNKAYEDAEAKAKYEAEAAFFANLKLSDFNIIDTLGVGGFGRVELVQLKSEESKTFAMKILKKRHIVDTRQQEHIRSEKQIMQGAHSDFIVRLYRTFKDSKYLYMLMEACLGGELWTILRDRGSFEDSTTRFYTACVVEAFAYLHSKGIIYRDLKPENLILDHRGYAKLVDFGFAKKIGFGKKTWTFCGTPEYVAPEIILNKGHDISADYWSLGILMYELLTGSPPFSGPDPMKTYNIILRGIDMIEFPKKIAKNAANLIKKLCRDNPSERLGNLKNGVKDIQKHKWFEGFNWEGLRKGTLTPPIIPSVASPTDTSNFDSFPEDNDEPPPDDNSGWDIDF

Sequence of Dual specificity tyrosine-phosphorylation-regulated kinase 1B (Homo sapiens) (Q9Y463 whole entry, looked up): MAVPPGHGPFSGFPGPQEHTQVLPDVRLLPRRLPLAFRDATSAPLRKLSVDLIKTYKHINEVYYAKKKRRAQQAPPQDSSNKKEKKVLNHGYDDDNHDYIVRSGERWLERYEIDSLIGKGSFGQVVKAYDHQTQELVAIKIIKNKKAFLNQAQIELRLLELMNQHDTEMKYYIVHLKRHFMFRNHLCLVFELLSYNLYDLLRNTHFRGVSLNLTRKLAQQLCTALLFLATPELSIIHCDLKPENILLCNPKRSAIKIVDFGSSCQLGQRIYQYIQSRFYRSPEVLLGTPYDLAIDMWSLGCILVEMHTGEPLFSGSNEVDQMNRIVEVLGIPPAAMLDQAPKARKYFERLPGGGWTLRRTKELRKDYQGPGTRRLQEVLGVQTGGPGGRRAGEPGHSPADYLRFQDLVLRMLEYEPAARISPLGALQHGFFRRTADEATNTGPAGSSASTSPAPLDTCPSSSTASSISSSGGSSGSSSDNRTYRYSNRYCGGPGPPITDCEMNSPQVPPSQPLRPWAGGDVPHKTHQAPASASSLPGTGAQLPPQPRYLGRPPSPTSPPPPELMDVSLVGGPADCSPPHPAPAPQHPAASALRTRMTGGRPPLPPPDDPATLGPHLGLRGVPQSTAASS

| residual activity [1] | residual activity [2] | residual activity [3] | residual activity [4] | residual activity [5] | residual activity [6] | residual activity [7] | residual activity [8] | residual activity [9] | residual activity [10] | residual activity [11] | Structure (SMILES) |
| --- | --- | --- | --- | --- | --- | --- | --- | --- | --- | --- | --- |
| 98% | 95% | 68% | 49% | 83% | 111% | 135% | 52% | 1% | 94% | 90% | COc1cc2c(Oc3ccc(-c4nc5ccccc5s4)cc3)ncnc2cc1OCCCN1CCCC1 |
| 89% | 100% | 91% | 53% | 88% | 103% | 116% | 18% | 1% | 102% | 84% | COc1cc2c(Oc3ccc(-c4nc5ccccc5s4)cc3F)ncnc2cc1OCCCN1CCN(C)CC1 |
| 104% | 94% | 83% | 40% | 104% | 88% | 109% | 40% | 1% | 90% | 97% | COc1cc2c(Oc3ccc(-c4nc5ccccc5s4)cc3)ncnc2cc1OCCCN1CCN(C)CC1 |
